US9296694B2, “Azacyclic compounds” (ACADIA Pharmaceuticals Inc., priority 2000, dated 2016)
“Also recorded” adds a separate entry of the source. Structures can show the parent of a compound that is named as a salt.

Columns and labels:
[1] = tested on: DOI-induced head twitches in mice; experiment: Observation for head twitches in DOI-treated mice; assay type: in vivo; conditions: for MED (minimum effective dose in vivo): statistically significant reduction in head twitching score, DOI-treated mice, 0.1-30 mg/kg subcutaneous injection
Source text: (§1) Instruments) were used for rat experiments (details on startle apparatus and measures, see Male Non-Swiss Albino mice and male Sprague-Dawley rats (Harlan Sprague-Dawley) were housed (4 mice/cage; 2 rats/cage) in rooms with temperature and humidity controlled and water and food (Harlan Teklad) freely available. Mice were kept on a 12-hr light:dark cycle, whereas rats were kept on a 12-hr reverse light:dark cycle. For locomotor and observation experiments in mice, plastic 20×20×30 cm activity cages were equipped with photocell beams (AccuScan Instruments). Startle chambers (San Diego Instruments) were used for rat experiments (for details on startle apparatus and measures, see Mansbach et al., (1988) Psychopharmacology 94:507-14).
Mice were treated with 2.5 mg/kg DOI i.p. Five min later, mice were treated with AC-90179 s.c. and placed into activity cages. Ten min later, mice were observed using a repeated sampling technique. […] Each dose combination was tested in a separate group of animals (n=8) and the experimenter was blind to drug conditions. Head twitch scores were averaged followed by analysis of variance (ANOVA) and post-hoc Dunnett's t-test comparisons.
The effect of various compounds on head twitch behavior in mice treated with DOI was observed as described in Example 139. Animals received 0.1-30 mg/kg of the compound indicated via subcutaneous injection. MED indicates the minimum effective dose at which a statistically significant reduction in head twitching score (described above) was observed. MED=minimum effective dose in vivo.

5-HT2A receptor = target: T1, 5-HT2A receptor (Homo sapiens, UniProt P28223); experiment: Receptor Selection and Amplification (R-SAT) assay, 5-HT2A inverse agonism; assay type: cell-based; conditions: for Percent Efficacy: compared to ritanserin
T1 construct: expressed in transfected cells; host or cells: NIH3T3 (mouse fibroblasts), pSI expression vector
Description: Briefly, NIH3T3 cells were grown in 96 well tissue culture plates to 70-80% confluence. Cells were transfected for 12-16 hours with plasmid DNAs using superfect (Qiagen Inc.) as per manufacture's protocols. R-SAT's were generally performed with 50 ng/well of receptor and 20 ng/well of Beta-galactosidase plasmid DNA. […] Large-scale transfections, cells were transfected for 12-16 hours, then trypsinized and frozen in DMSO. Frozen cells were later thawed, plated at 10,000-40,000 cells per well of a 96 well plate that contained drug. With both methods, cells were then grown in a humidified atmosphere with 5% ambient CO2 for five days. Media was then removed from the plates and marker gene activity was measured by the addition of the beta-galactosidase substrate ONPG (in PBS with 5% NP-40). […] All data were analyzed using the computer program XLFit (IDBSm).

[2] = tested on: acoustic startle and prepulse inhibition in rats; experiment: Startle testing, prepulse inhibition (PPI) in rats; assay type: in vivo
Source text: as §1
Rats were tested and groups (n=10) matched for levels of startle reactivity and prepulse inhibition (PPI; see Mansbach et al., (1988) Psychopharmacology 94:507-14). Two days later, test sessions started and consisted of a 5-min acclimation period with a constant background noise (65 dB), followed by 60 presentations of acoustic stimuli to measure acoustic startle responses. The 60 trials consisted of: twenty two 40-ms presentations of a 120 dB broadband pulse, ten 20-ms presentations of each prepulse intensity (68, 71, 77 dB) 100 ms prior to a 40-msec presentation of a 120 dB broadband pulse, and 8 NOSTIM trials in which no stimuli were delivered in order to assess general motor activation in the rats. Thirty min before testing, rats were treated with sterile water (s.c.), risperidone (1.0 mg/kg, i.p.), or AC-90179 (s.c.). Five min later, rats were administered DOI (0.5 mg/kg, s.c.) or 0.9% saline (s.c.). One-week later, rats were administered the same pretreatment drug or vehicle and crossed over to receive the treatment opposite to that they received the previous week. Startle magnitudes and percent PPI for the three prepulse intensities were calculated as described elsewhere (Bakshi, et al., (1994) J. Pharmacol. Exp. Ther. 271:787-94) and ANOVAs with repeated measures performed.

[3] = tested on: locomotor activity of mice (dizocilpine- or d-amphetamine-induced hyperactivity, spontaneous activity); experiment: Locomotor activity in mice; assay type: in vivo; conditions: for distance traveled (average): i.p., 15 min
Source text: as §1
For hyperactivity experiments, mice were treated with 0.3 mg/kg dizocilpine or 3.0 mg/kg d-amphetamine i.p. 15 min before the session. Five minutes after the pretreatment, mice were treated with AC-90179 s.c. and placed into the activity cages. For spontaneous activity, AC-90179 was administered alone. Locomotor data were collected during a 15 min session without habituation in a lit room. Each dose combination was tested in a separate group of animals (n=8). Distance traveled (cm) was calculated and averaged followed by ANOVA and post-hoc Dunnett's t-test comparisons.

[4] = mice, DOI 2.5 mg/kg i.p., 0.1-30 mg/kg, s.c., 10 min

T1 sequence (P28223 whole entry): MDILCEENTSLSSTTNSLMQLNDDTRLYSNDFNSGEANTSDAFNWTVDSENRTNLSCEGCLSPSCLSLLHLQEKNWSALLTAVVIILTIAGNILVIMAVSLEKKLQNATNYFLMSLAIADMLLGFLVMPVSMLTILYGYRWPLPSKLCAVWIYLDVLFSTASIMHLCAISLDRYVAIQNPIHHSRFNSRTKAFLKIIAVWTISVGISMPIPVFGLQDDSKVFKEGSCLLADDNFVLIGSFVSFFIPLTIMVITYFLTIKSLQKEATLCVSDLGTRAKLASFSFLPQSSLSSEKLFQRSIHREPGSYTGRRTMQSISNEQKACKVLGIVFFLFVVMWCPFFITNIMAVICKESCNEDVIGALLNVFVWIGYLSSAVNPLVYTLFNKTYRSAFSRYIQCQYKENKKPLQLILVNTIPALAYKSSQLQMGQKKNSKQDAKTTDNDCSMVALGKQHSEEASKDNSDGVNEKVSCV

COc1ccc(CC(=O)N(Cc2ccc(Cl)cc2)C2CCN(C(C)C)CC2)cc1 [Compound 42ELH79, 2-(4-Methoxyphenyl)-N-(4-chlorbenzyl)-N-(1-isopropylpiperidin-4-yl) acetamide]
MED (minimum effective dose in vivo) [1]: ≦10 mg/kg
pIC50 (5-HT2A receptor; Table 4 of Example 137): 8.5
Percent Efficacy (5-HT2A receptor; Table 4 of Example 137): 110%

CCN1CCC(N(Cc2ccc(Cl)cc2)C(=O)Cc2ccc(OC)cc2)CC1 [Compound 42ELH85, 2-(4-Methoxyphenyl)-N-(4-chlorbenzyl)-N-(1-ethylpiperidin-4-yl)acetamide]
MED (minimum effective dose in vivo) [1]: ≦10 mg/kg
Percent Efficacy (5-HT2A receptor; Table 4 of Example 137): 118%

COc1ccc(CC(=O)N(Cc2ccc(Cl)cc2)C2CCN(C3CCCC3)CC2)cc1 [Compound 42ELH91, 2-(4-Methoxyphenyl)-N-(4-chlorbenzyl)-N-(1-cyclopentylpiperidin-4-yl)acetamide]
MED (minimum effective dose in vivo) [1]: >10 mg/kg
Percent Efficacy (5-HT2A receptor; Table 4 of Example 137): 108%

COc1ccc(CC(=O)N(Cc2ccc(C)cc2)C2CCN(C)CC2)cc1 [Compound 50ELH27, 2-(4-Methoxyphenyl)-N-(4-methylbenzyl)-N-(1-methylpiperidin-4-yl)acetamide]
effect on startle magnitude ([2]; rats, 3-way repeated measures ANOVA): significant effect of pretreatment
restoration of PPI in DOI-treated rats ([2]; rats, DOI 0.5 mg/kg s.c., AC-90179 s.c., risperidone 1.0 mg/kg i.p.): effective in restoring this disruption especially at the higher doses; also recorded: significant effects
effect on PPI on its own ([2]; saline (vehicle)-treated rats, AC-90179 s.c., risperidone 1.0 mg/kg i.p.): did not affect PPI on its own; also recorded: no effect
effect on DOI-induced head-twitches [1, 4]: dose-related decrease
minimum effective dose against DOI-induced head-twitches [1, 4]: 1 mg/kg
effect on head twitch behavior at higher doses ([1]; mice, DOI 2.5 mg/kg i.p., higher doses, s.c.): completely eliminating head twitch behavior
MED (minimum effective dose in vivo) [1]: 1 mg/kg
effect on hyperactivity induced by dizocilpine ([3]; 0.3-10 mg/kg, s.c., 10 min, dizocilpine 0.3 mg/kg i.p.): attenuated
dose that reduced spontaneous locomotor activity ([3]; compound alone, s.c., only at the highest dose tested): 30 mg/kg
minimum effective dose against dizocilpine ([3]; hyperactivity induced by dizocilpine 0.3 mg/kg i.p., s.c.): 1 mg/kg

Cc1ccc(CN(C(=O)Cc2ccc(N(C)C)cc2)C2CCN(C)CC2)cc1 [Compound 57MBT70-6D, N-((4-methylphenyl)methyl)-N-(1-methylpiperidin-4-yl)-2-(4-(N,N-dimethylamino)phenyl)acetamide hydrochloride]
IC50 (5-HT2A receptor; Table 4 of Example 137): 10 nM

C[C@]12N[C@H](Cc3ccccc31)c1ccccc12 [Dizocilpine, dizocilpine, reference compound]
distance traveled (average) ([3]; 0.3 mg/kg): 2625 cm

C[C@H](N)Cc1ccccc1 [d-amphetamine, reference compound]
distance traveled (average) ([3]; 3.0 mg/kg): 3367 cm

N-(2-Phenylethyl)-N-(piperidin-4-yl)-4-methoxyphenylmethylacetamide [Compound 26HCH80-2]
pIC50 (average) (5-HT2A receptor; Table 1): 7.78
Efficacy (average) (5-HT2A receptor; percent maximal repression compared to ritanserin, Table 1): 89%
